SMILES strings stand for the structures. Like-named read-outs stand apart in the source and are kept apart here.

Common to all, as to assay type: in vivo
The subject of series [1] is Matricaria inodora (MATIN). Description: Post-emergence herbicidal action against MATIN. The following applies: dosage 320 g/ha. The essentials: (§1)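 Greenhouse plants sprayed at the one-leaf stage, 2–3 weeks after sowing, with WP or EC formulations plus 0.5% additive at 600 l/ha water. Activity rated visually after about 3 weeks versus untreated controls (100% = dead, 0% = like control), at 320 g/ha or lower.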

Series [2] deals with Verconica persica (VERPE). Description: Post-emergence herbicidal action against VERPE. The gist of the method:
as §1

Series [3] relates to Pharbitis purpurea (PHBPU). Description: Post-emergence herbicidal action against PHBPU. The following applies: dosage 320 g/ha. The essentials: as §1
For series [4], the system named is Polygonum convolvulus (POLCO). The series is described as follows: Post-emergence herbicidal action against POLCO. The settings on record: dosage 320 g/ha. The essentials:
as §1

In series [5] the test system is Amaranthus retroflexus (AMARE). The series is described as follows: Post-emergence herbicidal action against AMARE. The essentials: as §1
The test system of series [6] is Echinochloa crus-galli (ECHCG). The series is described as follows: Post-emergence herbicidal action against ECHCG. The essentials: as §1
Series [7] deals with Viola tricolor (VIOTR). Description: Post-emergence herbicidal action against VIOTR. The essentials: as §1
The subject of series [8] is Setaria viridis (SETVI). The series is described as follows: Post-emergence herbicidal action against SETVI. The gist of the method: as §1
In series [9] the test system is Digitaria sanguinalis (DIGSA). Description: Post-emergence herbicidal action against DIGSA. The following applies: visual rating about 3 weeks after treatment. The gist of the method: as §1
In series [10] the test system is Avena fatua (AVEFA). The series is described as follows: Post-emergence herbicidal action against AVEFA. The following applies: visual rating about 3 weeks after treatment. The gist of the method:
as §1

Series [11] relates to Triticum aestivum (TRZAS). The following applies: crop plant compatibility, effect vs untreated controls. The essentials:
(§2)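 Effects were read visually as % versus untreated controls (0% = no effect, 100% = death) about 3 weeks post-treatment. Application was a post-emergence spray at the one-leaf stage of WP/EC formulations with 0.5% additive at 600 l/ha. Different dosages are denoted a, b and c.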

For series [12], the system named is Zea mays (ZEAMX). The settings on record: for Post-emergence action against ZEAMX in % (crop plant compatibility): 20 g/ha, effect in comparison to untreated controls; for Post-emergence action against ZEAMX in %: crop plant compatibility, effect vs untreated controls. The essentials: as §2
For series [13], the system named is Oryza sativa (ORYSA). The settings on record: crop plant compatibility. The essentials: as §2
Series [14] deals with Alopecurus myosuroides (ALOMY). The series is described as follows: Post-emergence herbicidal action against ALOMY. The settings on record: visual rating about 3 weeks after treatment vs untreated controls (100% = plants have died, 0% = like control plants). The essentials:
as §1

Series [15] has as its system Lolium rigidum (LOLRI). Description: Post-emergence herbicidal action against LOLRI. The gist of the method: as §1
Series [16] relates to Abutilon theophrasti (ABUTH). The series is described as follows: Post-emergence herbicidal action against ABUTH. The following applies: 320 g/ha, visual rating about 3 weeks after treatment vs untreated controls (100% = plants have died, 0% = like control plants). The gist of the method:
as §1

Setting [17] is: 320 g/ha, visual rating about 3 weeks after treatment.
[18] abbreviates: 20 g/ha, effect vs untreated controls.
The mark [19] stands for this setting: 80 g/ha, effect in comparison to untreated controls.
[20] abbreviates: 320 g/ha, effect in comparison to untreated controls.

For the compound `Cc1ncccc1-n1nc(OCC(=O)O)c(Cl)c1-c1cncc(F)c1` [II-42], the “Post-emergence action against MATIN in %” value in series [1] amounted to 80%. In addition, the “Post-emergence action against VERPE in %” value in [2] (320 g/ha, VERPE) stood at 90%; in series [2] (dosage 80 g/ha), 80%. Also, the “Post-emergence action against PHBPU in %” value in [3] was determined as 90%. The “Post-emergence action against POLCO in %” value in [4] stood at 80%. Further, the “Post-emergence action against AMARE in %” value in series [5] (setting [17]) stood at 90%. The “Post-emergence action against ECHCG in %” value in series [6] (dosage 320 g/ha) is given as 90%. Also, the figures for the “Post-emergence action against VIOTR in %” value in series [7] (80 g/ha) and in [7] (320 g/ha) were 80% and 90%, respectively. Also, the “Post-emergence action against SETVI in %” value in series [8] (dosage 320 g/ha) came out at 90%. The “Post-emergence action against DIGSA in %” value in [9] (320 g/ha) worked out at 80%. Also, the “Post-emergence action against AVEFA in %” value in [10] (320 g/ha) is 90%. The “Post-emergence action against TRZAS in %” value in [11] (20 g/ha) turned out to be 0%; in series [11] (80 g/ha), 20%. Further, the “Post-emergence action against ZEAMX in % (crop plant compatibility)” value in series [12] is recorded as 20%. Moreover, the “Post-emergence action against ORYSA in %” value in series [13] (setting [18]), in series [13] (setting [19]) and in series [13] (setting [20]) was 0% throughout. Besides, the results for the “Post-emergence action against ALOMY in %” value in series [14] (80 g/ha) and in series [14] (320 g/ha) were 80% and 90%, respectively.

For `CCOC(=O)COc1nn(-c2ncccc2F)c(-c2ccnc(F)c2)c1Br` [Example I-136], the “Post-emergence action against MATIN in %” value in series [1] amounted to 80%. Besides, in series [3], the “Post-emergence action against PHBPU in %” value was determined as 90%. The “Post-emergence action against ECHCG in %” value in series [6] (dosage 320 g/ha) was 80%. Moreover, the “Post-emergence action against VIOTR in %” value in series [7] (80 g/ha) and in series [7] (320 g/ha) was 80% in each case. The “Post-emergence action against SETVI in %” value in series [8] (dosage 320 g/ha) is 90%. For the same compound, in [9] (320 g/ha), the “Post-emergence action against DIGSA in %” value is reported as 80%. In addition, the “Post-emergence action against TRZAS in %” value in series [11] (20 g/ha) turned out to be 10%. Besides, in series [12], the “Post-emergence action against ZEAMX in % (crop plant compatibility)” value is on record as 10%. Moreover, the “Post-emergence action against ZEAMX in %” value in [12] (80 g/ha) is reported as 10%; in [12] (320 g/ha), 20%. The entries for the “Post-emergence action against ORYSA in %” value in series [13] (setting [18]) and in series [13] (setting [19]) were 10% and 20%, respectively. Further, in series [15] (dosage 320 g/ha), the “Post-emergence action against LOLRI in %” value came out at 80%. In [14] (320 g/ha), the “Post-emergence action against ALOMY in %” value amounted to 90%.

Turning to `COC(=O)CCOC(=O)COc1nn(-c2ncccc2F)c(-c2ccc(F)nc2)c1C1CC1` [Example I-383], in [1], the “Post-emergence action against MATIN in %” value is 80%. Moreover, the “Post-emergence action against VERPE in %” value was 90% in [2] (320 g/ha, VERPE) and 80% in [2] (dosage 80 g/ha). For the same compound, the “Post-emergence action against AMARE in %” value in series [5] (setting [17]) came out at 80%. Besides, the entries for the “Post-emergence action against ECHCG in %” value in series [6] (dosage 80 g/ha) and in [6] (dosage 320 g/ha) were 80% and 90%, respectively. The results for the “Post-emergence action against VIOTR in %” value in [7] (80 g/ha) and in series [7] (320 g/ha) were 80% and 90%, respectively. For the same compound, the “Post-emergence action against SETVI in %” value in [8] (dosage 80 g/ha) and in [8] (dosage 320 g/ha) was 80% throughout. Also, the “Post-emergence action against DIGSA in %” value in series [9] (80 g/ha) is reported as 80%; in series [9] (320 g/ha), 90%. Moreover, the “Post-emergence action against AVEFA in %” value in series [10] (80 g/ha) and in series [10] (320 g/ha) was 80% each time. Further, the “Post-emergence action against TRZAS in %” value in series [11] (20 g/ha) was 20%. Moreover, in series [12], the “Post-emergence action against ZEAMX in % (crop plant compatibility)” value worked out at 10%. The “Post-emergence action against ZEAMX in %” value in series [12] (80 g/ha) was 20%. Moreover, the “Post-emergence action against LOLRI in %” value was determined as 80% in series [15] (dosage 80 g/ha) and 90% in series [15] (dosage 320 g/ha). The “Post-emergence action against ALOMY in %” value in [14] (320 g/ha) turned out to be 90%.

Turning to `O=C(O)COc1nn(-c2ncccc2F)c(-c2ccnc(F)c2)c1Br` [Example I-139], the “Post-emergence action against VERPE in %” value in [2] (320 g/ha, VERPE) is recorded as 90%; in series [2] (dosage 80 g/ha) it was 80%. Further, in [3], the “Post-emergence action against PHBPU in %” value is listed as 80%. Also, the “Post-emergence action against POLCO in %” value in [4] is 90%. The “Post-emergence action against AMARE in %” value in series [5] (80 g/ha, visual rating about 3 weeks after treatment vs untreated controls (100% = plants have died, 0% = like control plants)) was found to be 80%; in series [5] (setting [17]), 90%. The “Post-emergence action against ECHCG in %” value in series [6] (dosage 320 g/ha) came to 80%. In addition, the “Post-emergence action against ABUTH in %” value in series [16] is 80%. Moreover, the “Post-emergence action against VIOTR in %” value in [7] (80 g/ha) is recorded as 80%; in [7] (320 g/ha), 90%. The “Post-emergence action against DIGSA in %” value in series [9] (320 g/ha) amounted to 90%. Further, the “Post-emergence action against TRZAS in %” value in [11] (20 g/ha) was 0%. Besides, the “Post-emergence action against ZEAMX in % (crop plant compatibility)” value in series [12] stood at 0%. Further, the “Post-emergence action against ZEAMX in %” value in series [12] (80 g/ha) is listed as 0%; in [12] (320 g/ha), 10%. The results for the “Post-emergence action against ORYSA in %” value in series [13] (setting [18]), in [13] (setting [19]) and in [13] (setting [20]) were 0%, 0% and 10%, respectively. Further, the “Post-emergence action against ALOMY in %” value in [14] (80 g/ha) and in series [14] (320 g/ha) was 90% each time.

The values above are taken from US20240041042A1, “1-(PYRIDYL)-5-AZINYLPYRAZOLE DERIVATIVES, AND THEIR USE FOR CONTROL OF UNDESIRED PLANT GROWTH” (Bayer Aktiengesellschaft, priority 2020, published 2024).
